Experimental data taken from patent publication US20230140972A1, “GLYCEROL GLUCOSIDE-BASED COMPOUND AND COMPOSITION COMPRISING SAME FOR ULTRAVIOLET LIGHT SHIELD OR ANTI-INFLAMMATION” (ATHENA CO., LTD., priority 2020, published 2023).
Values joined by “and” are separate entries in the source; they are usually repeats but may differ in a detail not shown here. Identical values can stand only once.

How the values were obtained:
[1] = test system: NO production in LPS-treated RAW264.7 cells; experiment: Nitric oxide (NO) production inhibition, non-enzymatic method (Griess); type: cell-based; details: Mus musculus, LPS 1 μg/mL, read-out: NO production inhibition rate
Experimental: An NO assay was performed to evaluate the nitric oxide (NO) production inhibition ability of the glycerol glucoside-based compound sample (EPS-S).
Specifically, subcultured RAW264.7 cells were aliquoted in a 96-well plate at 1×10^5 cells/well, and cultured for 24 hours at 37° C. in an incubator containing 5% carbon dioxide, and then, a culture media was replaced with a serum-free media. Then, each sample was diluted by concentration, treated onto the cell with LPS (final 1 μg/mL), and after culturing for 24 hours, the cell culture medium and a Griess reagent were reacted, and an absorbance was then measured at 540 nm with a microplate reader. Dexamethasone was used as a positive control group. After the test was conducted once, each absorbance value was substituted into Equation 2 below to obtain the NO production inhibition rate (%), and it was expressed as the mean±standard deviation.

[2] = test system: PGE2 production in RAW264.7 cells; experiment: PGE2 production inhibition using ELISA assay; type: cell-based, mouse; details: Mus musculus, RAW264.7, LPS 10 ng/mL, read-out: PGE2 production inhibitory ability
Experimental: A PGE2 production inhibition ability of the sample in RAW264.7 cells was evaluated using a PGE2 ELISA assay.
Specifically, subcultured RAW264.7 cells were aliquoted into a 6-well dish at 1.5×10^6 cells/well and cultured for 24 hours at 37° C. in an incubator containing 5% carbon dioxide, and then a culture media was replaced with a serum-free media. Then, each sample was diluted by concentration and treated onto the cells with LPS (final 10 ng/mL). After culturing for 24 hours, the cell culture medium was recovered and a PGE2 ELISA assay was performed.
100 μL of each of a standard solution and a cell culture solution were put into each well, and then 50 μL of PGE2 conjugate and 50 μL of PGE2 antibody were sequentially added and reacted at room temperature for 2 hours. Then, the reaction solution was removed from each well, washing is performed with a wash buffer, 200 μL of a substrate solution was then added, and reacted at room temperature for 45 minutes. Then, 50 μL of a stop solution was added and an absorbance was measured at 405 and 570 nm. Dexamethasone was used as a positive control group. After the test was conducted once, an amount of PGE2 production was calculated by substituting the absorbance value into a PGE2 standard solution calibration curve, and the PGE2 production inhibition rate (%) was calculated using Equation 5 below and expressed as the mean±standard deviation.

[3] = test system: COX-2 mRNA in RAW264.7 cells; experiment: COX-2 mRNA expression analysis (RT-qPCR); type: cell-based, mouse; details: LPS 100 ng/mL
Experimental: An RT-qPCR was performed to evaluate an mRNA expression inhibition ability of COX-2 and iNOS of the glycerol glucoside-based compound sample (EPS-S).
Specifically, subcultured RAW264.7 cells were aliquoted into a 60 mm dish at 1.5×10^6 cells, and cultured at 37° C. in an incubator containing 5% carbon dioxide for 24 hours, and then a culture media was replaced with a serum-free media. Then, each sample was diluted by concentration and treated onto the cells with LPS (final 100 ng/mL). After culturing for 24 hours, cells were recovered, RNA was extracted, and cDNA was synthesized. For cDNA, qPCR was performed after mixing Real-time PCR Master Mix with TaqMan probes of each of COX-2 and iNOS. Dexamethasone was used as a positive control group. The test was conducted once, and the mRNA expression inhibition rate was obtained by analyzing the result by the ΔΔCt method, and then substituted into Equation 6 below to obtain the mRNA expression inhibition rate of COX-2 and iNOS of the treated sample group compared to the negative control group.

[4] = test system: NO2 production in LPS-treated RAW264.7 cells; experiment: Nitric oxide (NO2) production amount and inhibition, non-enzymatic method; type: cell-based, mouse; details: LPS 1 μg/mL, 24 h
Experimental: An NO assay was performed to evaluate an amount of nitric oxide (NO2) production and a production inhibition ability of the glycerol glucoside-based compound sample (EPS-S).
Specifically, subcultured RAW264.7 cells were aliquoted into a 96-well plate at 1×10^5 cells/well, and cultured at 37° C. in an incubator containing 5% carbon dioxide for 24 hours, and then a culture media was replaced with a serum-free media. […] Dexamethasone was used as a positive control group.

[5] = test system: total NO production in LPS-treated RAW264.7 cells; experiment: Nitric oxide (total NO) production and inhibition, enzymatic method; type: cell-based, mouse; details: LPS 1 μg/mL
Experimental: An NO assay was performed to evaluate an amount of nitric oxide (total NO) production and a production inhibition rate of the glycerol glucoside-based compound sample (EPS-S).
Specifically, subcultured RAW264.7 cells were aliquoted into a 96-well plate at 1×10^5 cells/well, and cultured at 37° C. in an incubator containing 5% carbon dioxide for 24 hours, and then a culture media was replaced with a serum-free media. Then, each sample is diluted by concentration and treated onto the cells with LPS (final 1 μg/mL). After culturing for 24 hours, a cell culture medium was treated with nitrate reductase, enzyme cofactor and enhancer to react. A Griess reagent was added and an absorbance was measured at 540 nm with a microplate reader. A total NO production was obtained by substituting the absorbance into a standard nitric oxide calibration curve, and a total NO production inhibition rate (%) was analyzed through Equation 2 and expressed as a mean±standard deviation. Dexamethasone was used as a positive control group.

COCC(COC)OC1OC(CO)C(O)C(O)C1O (centres unmarked) [EPS-S]
inhibition at 1 ppm ([1]; 24 h, 1 ppm): -5.66% | inhibition at 10 ppm ([1]; 24 h, 10 ppm): 6.1% | inhibition at 100 ppm ([1]; 24 h, 100 ppm): 14.2% | inhibition at 1000 ppm ([1]; 24 h, 1,000 ppm): 30.3% | inhibition at 10 ppm ([2]; 24 h, 10 ppm): 28.3% | inhibition at 100 ppm ([2]; 24 h, 100 ppm): 36.5% | inhibition at 500 ppm ([2]; 24 h, 500 ppm): 47.2% | inhibition at 1000 ppm ([2]; 24 h, 1,000 ppm): 94.1% | COX-2 mRNA expression inhibition rate ([3]; 24 h, 10 ppm): −9.09% and −9.09 ± 3.16% | COX-2 mRNA expression inhibition rate ([3]; 24 h, 100 ppm): 74.44% and 74.44 ± 0.91% | COX-2 mRNA expression inhibition rate ([3]; 24 h, 500 ppm): 76.43% and 76.43 ± 1.11% | COX-2 mRNA expression inhibition rate ([3]; 24 h, 1,000 ppm): 83.19% and 83.19 ± 1.30% | NO2 production amount ([4]; 10 ppm): 23.14 ± 0.25 µM | NO2 production amount ([4]; 100 ppm): 23.14 µM and 22.57 ± 0.16 µM | NO2 production amount ([4]; 500 ppm (text b168)): 22.57 µM | NO2 production amount ([4]; 1000 ppm): 20.90 µM and 20.90 ± 0.50 µM | inhibition at 100 ppm ([4]; Mus musculus, RAW264.7, 100 ppm, read-out: NO2 production inhibition rate): 9.47% | inhibition at 500 ppm ([4]; Mus musculus, RAW264.7, 500 ppm, read-out: NO2 production inhibition rate): 13.2% | inhibition at 1000 ppm ([4]; Mus musculus, RAW264.7, 1000 ppm, read-out: NO2 production inhibition rate): 24% | Total NO production ([5]; 24 h, 100 ppm): 62.07 µM and 62.07 ± 0.48 µM | Total NO production inhibition rate ([5]; 24 h, 100 ppm): −3.85 ± 2.22% | Total NO production ([5]; 24 h, 500 ppm): 59.20 µM and 59.20 ± 0.86 µM | Total NO production ([5]; 24 h, 1000 ppm): 53.38 µM and 53.38 ± 0.18 µM | inhibition at 10 ppm ([5]; Mus musculus, RAW264.7, 24 h, 10 ppm, read-out: Total NO production inhibition rate): -11.3 ± 1.24% | inhibition at 500 ppm ([5]; Mus musculus, RAW264.7, 24 h, 500 ppm (text b176), read-out: Total NO production inhibition rate): -3.84% | inhibition at 1000 ppm ([5]; Mus musculus, RAW264.7, 24 h, 1000 ppm, read-out: Total NO production inhibition rate): 11.2%
